From patent US20090280193A1, “Enerceutical mediated activation of the Alternative Cellular Energy (ACE) pathway in the therapy of diseases” (priority 2008, published 2009)

Assay: UV light induced fluorescence when mixed with freshly prepared neutral red
Type: physicochemical
Excerpt: This concept is fully consistent with the finding that various mineral and organic substances can be formulated that similarly show fluorescence when mixed with neutral red and illuminated with UV light. Not all cellular energy delivering products show this reaction but may yet presumably still be are able to absorb energies; and further that such absorption may be facilitated using various types of dyes or other chemicals. The advantage of a current formulation that has been devised over the last several years is that it clearly fluoresces with neutral red and that a distant action can be easily observed in a distantly held neutral red indication solution. This action includes otherwise unexplained movements of fine particles within the neutral red solution and more strikingly the induced crystallization that occurs in the neutral red solution. […] The UV inducible fluorescence, or other form of energy emission, within the plastic bags will typically evoke some discernable fluorescence within at least some skin areas in most of the treated and symptomatic patients, consistent with an overall systemic activation of the body's ACE pathway. […] The liquid-in-a-bag format also allows for the addition of other materials that can further enhance the activation and/or fluorescence of the formulations being studied. […]

CCN(CC)CC(=O)Nc1c(C)cccc1C [Lidocaine]
fluorescence with neutral red: will not fluoresce
